Source: PubChem BioAssay AID2305 (GlaxoSmithKline (GSK), 2010)

Tested on: P. falciparum 3D7 growth, pLDH absorbance
Assay: blood-stage malaria parasite growth potency – strain 3D7, dose response (AID 2305)

| SMILES | IC50 |
| --- | --- |
| CN(C)CCN(C)Cc1ccc(-c2ccc(NC(=O)c3cccc(Cl)c3)cc2)cc1 | 1140 nM |
| N#Cc1ccc(CN2CCCN(Cc3cccc(NC(=O)c4cc5ccccc5s4)c3)CC2)cc1 | 910 nM |
| O=C(Nc1ccc2nc(-c3ccccc3)[nH]c2c1)c1cc(-c2ccc3c(c2)OCCO3)n[nH]1 | 770 nM |
| Nc1ccc(-c2cnc3[nH]cc(-c4ccc(C(=O)O)cc4)c3c2)cn1 | 960 nM |
| CN(C)CCN(C)Cc1ccc(-c2ccc(NS(=O)(=O)c3cccc4cccnc34)cc2)cc1 | 860 nM |
| Cc1cnc(C(=O)Nc2ccc3c(c2)CCCN(Cc2c[nH]c4cnccc24)C3)cn1 | 1230 nM |
| Nc1c2c(nc3ccc(NC(=O)CCCCCCc4ccccc4)cc13)CCCC2 | 250 nM |
| CC(C)CNCc1cccc(-c2ccc(CNc3ccc4ncccc4c3)cc2)c1 | 1060 nM |
| O=C(Nc1cccc(C(F)(F)F)c1)Nc1ccc(Cl)c(Cl)c1 | 740 nM |
| N#Cc1cc(C(=O)Nc2ccccc2)c(N)nc1SCC(=O)NC(c1ccccc1)c1cccs1 (centres undefined) | 610 nM |
| O=C(Nc1ccc(CN2CCOCC2)cc1)c1ccc(-c2cc(Cl)ccc2Cl)o1 | 610 nM |
| O=C1c2ccccc2CN1CCCN1CCC(Oc2ccc(F)cc2)CC1 | 1210 nM |
| O=C(Nc1cccc(-c2ccc(-c3nc4ccc(F)cc4[nH]3)cc2)c1)c1cccnc1 | 610 nM |
| Oc1ccc(Cc2ccccc2)cc1CNC1CCCCC1 | 190 nM |
| C[C@H](Cc1ccc(OCCCCCCCOc2ccc(C[C@@H](C)NC[C@H](O)c3cccc(Cl)c3)cc2)cc1)NC[C@H](O)c1cccc(Cl)c1 | 190 nM |
| CC(=O)Nc1ccc(C(=O)NC2CCN(c3ccnc4cc(Cl)ccc34)CC2)cc1 | 360 nM |
| COc1cc(CNCCCCCCNCc2cc(OC)c(OC)c3ccccc23)c2ccccc2c1OC | 230 nM |
| COc1ccc2ncc(F)c([C@H](O)CN3CCC(NCc4ccc5c(c4)NC(=O)CS5)CC3)c2c1 | 190 nM |
| COc1cccc(OC)c1CN1CCC(N(C)CCCCCCCCN2CCC(OC(=O)Nc3ccccc3-c3ccccc3)CC2)CC1 | 460 nM |
| Cc1nnc2sc(-c3cccc(NC(=O)c4ccc(N5CCCCC5)c([N+](=O)[O-])c4)c3)nn12 | 1300 nM |
| CN1CCN(c2ccnc3ccc(NC(=O)Nc4cccc(C#N)c4)cc23)CC1 | 800 nM |
| COc1ccc2ncc(Cl)c(CCN3CCC(NCc4ccc5c(n4)NC(=O)CS5)CC3)c2c1 | 590 nM |
| CCOc1cc(CNCCCCCCNCc2cc(OCC)c(OCC)c3ccccc23)c2ccccc2c1OCC | 280 nM |
| CCCCCCCc1c(C)[nH]c2ccc(F)cc2c1=O | 290 nM |
| CN(C)c1ccc(C=C2SC(=Nc3ccccc3)N(c3ccccc3)C2=O)cc1[N+](=O)[O-] | 780 nM |

| SMILES | IC50 |
| --- | --- |
| Cc1cnc(NCCc2ccc(F)cc2)nc1N[C@@H](CC(C)C)C(=O)Nc1ccccc1 | 970 nM |
| COc1ccccc1CCN1CCC(CN(C)Cc2ccc(O)c(Cl)c2)CC1 | 330 nM |
| CNCCCCCCOc1ccc(CC(C)NCC(O)c2cccc(C(F)(F)F)c2)cc1 (centres undefined) | 880 nM |
| COc1ccc(CCc2ccc(-c3c(C)[nH]c(C)c(Cl)c3=O)cc2)cc1OC | 90 nM |
| Cc1ccc(F)cc1S(=O)(=O)NCC(C)c1ccc(NC(=O)Nc2cccc(F)c2)cc1 (centres undefined) | 970 nM |
| CC(C)COc1ccc(Cl)cc1Cc1nc(-c2nc3ccc(CN4CCN(C)CC4)cc3[nH]2)co1 | 910 nM |
| Oc1ccc(CCNc2nc(NCCCOc3ccccc3-c3cccnc3)nc(N3CCNCC3)n2)cc1 | 1040 nM |
| Cc1c(F)cc(C(=O)NC2CC2)cc1-c1ccc2c(c1)c(C)nn2S(=O)(=O)c1cccs1 | 940 nM |
| Cc1cccc(CNc2nc(C)cc(N[C@@H](CC(C)C)C(=O)NCCOc3ccccc3)n2)c1 | 1080 nM |
| COc1ccc2nccc([C@@H](O)CN3CCC(NCCNc4ccccn4)CC3)c2c1 | 740 nM |
| NC(=O)c1ccc(C(=O)Nc2cccc(-c3ccc(-c4nc5ccc(C(F)(F)F)cc5[nH]4)cc3)c2)cc1 | 510 nM |
| COc1ccc(CNC2CCN(C)CC2)cc1-c1ccc(S(=O)(=O)NCCc2ccccn2)cc1 | 1090 nM |
| Cc1ccc(Nc2nc(C)cc(NCc3ccc(-n4ccnc4)cc3)n2)cc1 | 1010 nM |
| O=c1cc(NCCCNCc2cccc(SC(F)(F)F)c2)[nH]c2ccccc12 | 720 nM |
| COc1cc2c(cc1OC)C(C(=O)Nc1cc(OC)c(OC)c(OC)c1)C(c1ccc(SC)cc1)N(C)C2=O (centres undefined) | 990 nM |
| CCc1cn2c3c(cc(C(=O)N[C@@H](Cc4cccc(F)c4)[C@H](O)CNC4CCOCC4)cc13)N(C)S(=O)(=O)CC2 | 70 nM |
| Cc1cc(OCC2CCCN(c3ncc(C(=O)NC4CC4)cc3Cl)C2)ccc1F (centres undefined) | 1490 nM |
| CCc1c(CCNCCCCCCNCCc2ccc(Br)cc2)ccc(OC)c1OC | 230 nM |
| Clc1nc2ccccn2c1C=Cc1ccc2ccccc2n1 | 270 nM |
| C(=NNc1ccnc2ccccc12)c1ccncc1 | 740 nM |
| O=S(=O)(Nc1ccc(CCN2CCC(N3CCCCC3)CC2)cc1)c1ccc(Cl)cc1 | 1090 nM |
| COc1ccccc1-n1ccnc1SCC(=O)Nc1cc(C(F)(F)F)ccc1Cl | 10 nM |
| CCCc1cc(NCC)nc(Nc2ccc(F)cc2)n1 | 1030 nM |
| O=C(Nc1cc(Cl)cc(Cl)c1)Nc1ccccc1C(=O)NC1CCCCC1 | 750 nM |
| COC(=O)c1c(NC(=O)c2cccc(C(F)(F)F)c2)sc2c1CCN(Cc1ccccc1)C2 | 1340 nM |

| SMILES | IC50 |
| --- | --- |
| CC(C)Cc1nc(N2CCOCC2)c2nnn(Cc3ccccc3)c2n1 | 510 nM |
| CCN(CC)CCNC(=O)/C(=C/C=C/c1cc2cc(Cl)c(Cl)cc2[nH]1)OC | 930 nM |
| Cc1ccc(Cc2c(C)nc3nc(N)nc(N)c3c2C)cc1 | 240 nM |
| Cc1ccc(-n2c(Sc3ncnc4sccc34)nnc2N2CCCC2)cc1 | 260 nM |
| CN(C)CCNCc1ccc(-c2cccc(-c3nc4ccccc4[nH]3)c2)cc1 | 720 nM |
| COc1cccc2c(Nc3ccccc3C)nc(Nc3ccccc3C)nc12 | 680 nM |
| CCCCCCOc1ccc(C(=O)N(Cc2ccccc2)c2c(-c3ccccc3)nc3cc(C)ccn23)cc1 | 770 nM |
| COc1cc(NC(=O)c2sc(-c3ccc(Cl)cc3)cc2NC(=O)CN2CCCC2)ccc1OCCN1CCCC1 | 930 nM |
| O=S(=O)(NC1CCN(c2ccnc3cc(Cl)ccc23)C1)c1ccc(F)cc1 (centres undefined) | 470 nM |
| Cc1[nH]c(C)c(-c2ccc(Sc3ccc(Cl)cc3)cc2)c(=O)c1Br | 140 nM |
| Fc1ccc(Nc2ccnc3cc(-c4cccc(CN5CCCCC5)c4)ccc23)c(Cl)c1 | 30 nM |
| COc1ccc(CC2(c3ccc(F)cc3)N=C(N)N(CCCc3cccnc3)C2=O)cc1 (centres undefined) | 670 nM |
| COc1ccc(NC(=O)NC2CCN(c3ccnc4cc(Cl)ccc34)CC2)cc1 | 730 nM |
| CN1CCN(c2cc(-c3ccncc3)nc(-c3cccnc3)n2)CC1 | 810 nM |
| Cc1cc2nc(-c3ccc(C(=O)NC4CCN(Cc5ccccc5)CC4)cc3)[nH]c2cc1C | 740 nM |
| Oc1c(Cl)cc(Nc2nccc(Nc3ccc(Oc4ccccc4)cc3)n2)cc1Cl | 790 nM |
| CC(C)C1=C[C@H]2C[C@]3(C4OCCO4)[C@@H]4CC[C@@H](C)[C@H]4C[C@@]2(COCc2cccc(C#N)c2)[C@]13C(=O)OC(c1ccccc1)c1ccccc1 | 1790 nM |
| N#Cc1cccc(NC(=O)Nc2ccc3c(c2)CN(Cc2c[nH]c4ncccc24)C3)c1 | 800 nM |
| CCCN(CCC)C(=O)c1cc(-c2cccc(C)c2)nc2ccccc12 | 1060 nM |
| Cc1cccc2[nH]c(-c3ccc(-c4cccc(CNCCCN5CCCC5=O)c4)s3)nc12 | 590 nM |
| O=C(Nc1ccc2oc(-c3ccc(Br)cc3)nc2c1)c1ccc([N+](=O)[O-])o1 | 970 nM |
| COc1cccc(C2CCN(CCN3CCC(NC(=O)c4ccc(-c5ccc(C(F)(F)F)cc5)cc4)CC3)CC2)c1 | 200 nM |
| CC(C)Sc1nc2c(c(=O)n1Cc1ccco1)C1(CCCCC1)Cc1ccccc1-2 | 250 nM |
| CCC(C)Oc1ccc2nc(N)nc(N)c2c1Cl (centres undefined) | 180 nM |
| CCc1c[nH]c2c(N3CCCC3=O)cc(C(=O)N[C@@H](Cc3ccccc3)[C@H](O)CNC(C)(C)CCCC(C)C)cc12 | 510 nM |

| SMILES | IC50 |
| --- | --- |
| CC(C)(CN)c1cc(-c2ccc(Cl)c(O)c2)c(-c2ccncc2)o1 | 1140 nM |
| Oc1ccc(Cl)cc1CN1CCC2(CCCN(CC3CCC3)C2)C1 (centres undefined) | 370 nM |
| CN1CCN(CCCN(Cc2cccc(-c3ccc(CNCc4ccc5c(c4)OCO5)cc3)c2)C(=O)Nc2ccccc2)CC1 | 680 nM |
| CNC(=O)c1cnc(Nc2ccc(N3CCN(C)CC3)cc2)nc1Nc1cccc(OC)c1 | 750 nM |
| Cc1cc(Nc2ccc(C)c(Cl)c2)n2nc(C(F)(F)F)nc2n1 | 20 nM |
| Cc1[nH]c(C)c(-c2ccc(OCCCCSc3ccncc3)cc2)c(=O)c1Br | 250 nM |
| CC(C)c1ccc(C2CCN(CCCCNC(=O)c3ccc(NC(=O)c4ccc(C(F)(F)F)cc4)cc3)CC2)c(O)c1 | 580 nM |
| CN1CCN(CCCN(Cc2ccc(-c3cccc(CNC4CCCC4)c3)cc2)C(=O)Nc2ccccc2)CC1 | 1120 nM |
| CCOc1cc(Cc2cnc(N)nc2N)cc(OC)c1OC | 910 nM |
| COc1ccccc1C1CCN(C2CCC(NC(=O)/C=C/c3ccc(OC(F)(F)F)cc3)CC2)CC1 (centres undefined) | 1350 nM |
| CO/C(=C\C=C\c1cc2cc(Cl)c(Cl)cc2[nH]1)C(=O)NC1C[C@@H](C)N(C)[C@@H](C)C1 (some centres undefined) | 900 nM |
| Cc1cc2cc(NC(=O)Nc3ccnc4ccccc34)ccc2n1C | 1090 nM |
| O=C(NCCCCN1CCC(c2ccc3c(c2OCCCO)CCCC3)CC1)c1ccc(-c2ccc(C(F)(F)F)cc2)cc1 | 720 nM |
| CCCN(Cc1nnc(-c2ccco2)o1)C(=O)C1CCN(c2ncc(C(F)(F)F)cc2Cl)CC1 | 690 nM |
| CN(C)CCNCc1cccc(-c2ccc3c(Nc4ccc(F)cc4Cl)ccnc3c2)c1 | 810 nM |
| O=C(/C=C/c1ccc(Cl)c(Cl)c1)NC1CCC(CN2CCC(Cc3c[nH]c4ccccc34)CC2)CC1 (centres undefined) | 890 nM |
| O=C(NC1CCC(CN2CCC(c3c[nH]c4ccccc34)CC2)CC1)c1cc2ccccc2o1 (centres undefined) | 970 nM |
| O=C(Nc1cccc(C(F)(F)F)c1)c1cc([N+](=O)[O-])cc2cn[nH]c12 | 990 nM |
| CC(C)NCC(=O)Nc1cccc(C(=O)Nc2cccc(C(F)(F)F)c2)c1 | 270 nM |
| Fc1ccc2nc(-c3ccc(-c4cccc(CN5CCN(c6ccncc6)CC5)c4)cc3)[nH]c2c1 | 90 nM |
| O=C(c1cc(-c2cccs2)[nH]n1)N1CCN(S(=O)(=O)c2ccc(Br)cc2)CC1 | 360 nM |
| COC(=O)Cn1c(C2CCN(CC3CCN(C(=O)/C=C/c4ccc(Cl)c(Cl)c4)CC3)CC2)nc2ccccc21 | 1200 nM |
| CCCCc1cc(NCc2ccncc2)nc(Nc2ccccc2)n1 | 840 nM |
| CCCN1CCN(CCCNc2c3ccccc3nc3ccccc23)CC1 | 550 nM |
